Assay results taken from ChEMBL document CHEMBL6096731, “Structure-Guided Optimization and Preclinical Evaluation of 6-O-Benzylguanine-Based Pin1 Inhibitor for Hepatocellular Carcinoma Treatment” (J Med Chem, 2025).
The source made the active and inactive calls. No cut-off for these calls is given here.

What was measured:
[1] = test system: SK-HEP1; assay: Inhibition of cell migration in human SK-HEP1 cells at 5 uM incubated for 24 hrs by wound healing assay; format: functional, cell-based
[2] = test system: SK-HEP1; assay: Antiproliferative activity human SK-HEP1 cells assessed as cell viability measured at 96 hrs; format: functional, cell-based
[3] = Drug distribution in BALB/c mouse liver measured after 24 hrs by HPLC analysis; format: ADME, tissue-based; details: in vivo
[4] = test system: SK-HEP1; assay: Antitumor activity against human SK-HEP1 cells xenografted in female BALB/c mouse assessed as downregulation of c-myc level at 2.5 mg/kg, po measured every 4 days by immunoblotting analysis; format: functional, organism-based; details: time 4.0 day
[5] = test system: SK-HEP1; assay: Antiproliferative activity human SK-HEP1 cells assessed as cell viability measured at 120 hrs; format: functional, cell-based
[6] = molecular target: Peptidyl-prolyl cis-trans isomerase A (Homo sapiens) (UniProt P62937); assay: Inhibition of Cyclophilin A (unknown origin) expressed in Escherichia coli
Sequence of Peptidyl-prolyl cis-trans isomerase A (Homo sapiens) (P62937 whole entry, looked up): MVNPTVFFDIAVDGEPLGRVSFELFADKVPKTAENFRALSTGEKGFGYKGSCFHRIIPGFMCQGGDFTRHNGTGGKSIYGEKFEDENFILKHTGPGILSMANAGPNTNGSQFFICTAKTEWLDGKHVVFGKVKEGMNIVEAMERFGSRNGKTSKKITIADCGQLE

[7] = test system: SK-HEP1; assay: Upregulation of let7a expression in human SK-HEP1 cells at 5 uM incubated for 36 hrs by RT-PCR analysis; format: functional, cell-based
[8] = Metabolic stability in mouse microsomes measured after 120 mins; format: ADME, Liver, Microsome; details: 2 h
[9] = Toxicity in c-Myc/Alb-Cre transgenic mouse assessed as effect on TP level at 2.5 mg/kg, po; format: organism-based; details: in vivo
[10] = molecular target: T1, Peptidyl-prolyl cis-trans isomerase NIMA-interacting 1 (Homo sapiens, UniProt Q13526); assay: Inhibition of pin1 in human SK-HEP1 cells assessed as reduction in beta-catenin level at 5 uM incubated for 24 hrs by immunoblotting analysis; format: cell-based
T1 sequence (Q13526 whole entry): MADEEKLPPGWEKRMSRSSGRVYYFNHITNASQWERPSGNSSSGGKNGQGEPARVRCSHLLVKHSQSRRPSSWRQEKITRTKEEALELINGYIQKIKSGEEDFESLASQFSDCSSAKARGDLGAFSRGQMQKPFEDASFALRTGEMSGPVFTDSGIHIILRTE

[11] = test system: SK-HEP1; assay: Inhibition of cell migration in human SK-HEP1 cells at 5 uM incubated for 24 hrs by crystal violet staining based microscopic analysis; format: functional
[12] = Toxicity in c-Myc/Alb-Cre transgenic mouse assessed as effect on ALP level at 2.5 mg/kg, po; format: organism-based; details: in vivo
[13] = molecular target: T1, Peptidyl-prolyl cis-trans isomerase NIMA-interacting 1; assay: Binding affinity to GST-tagged pin1 (unknown origin) assessed as thermal stabilization at 1 uM at 48 to 58 degreeC by cellular thermal shift assay
[14] = Toxicity in c-Myc/Alb-Cre transgenic mouse assessed as heart damage at 2.5 mg/kg, po; format: organism-based; details: in vivo
[15] = Drug localization in nucleus of human SK-HEP1 cells at 5 uM incubated for 24 hrs by Hoechst 33342 staining based fluorescence microscopic analysis; format: ADME, subcellular; details: sk-hep1, 24 h
[16] = test system: SK-HEP1; assay: Antitumor activity against human SK-HEP1 cells xenografted in female BALB/c mouse assessed as increase in pin1 level in spleen at 2.5 mg/kg, po measured every 4 days; format: functional, organism-based; details: time 4.0 day
[17] = Toxicity in c-Myc/Alb-Cre transgenic mouse assessed as lung damage at 2.5 mg/kg, po; format: organism-based; details: in vivo
[18] = test system: SK-HEP1; assay: Antitumor activity against human SK-HEP1 cells xenografted in female BALB/c mouse assessed as increase in pin1 level in liver at 2.5 mg/kg, po measured every 4 days; format: functional, organism-based; details: time 4.0 day
[19] = Drug distribution in BALB/c mouse tumor measured after 24 hrs by HPLC analysis; format: ADME, tissue-based, Neoplasm; details: in vivo
[20] = test system: HCC; assay: Induction of apoptosis in human HCC cells at 5 uM by Annexin V/FITC staining based flow cytometry analysis; format: functional, cell-based
[21] = molecular target: Peptidyl-prolyl cis-trans isomerase NIMA-interacting 1 (Mus musculus) (UniProt Q9QUR7); assay: Binding affinity to mouse pin1
Sequence of Peptidyl-prolyl cis-trans isomerase NIMA-interacting 1 (Mus musculus) (Q9QUR7 whole entry): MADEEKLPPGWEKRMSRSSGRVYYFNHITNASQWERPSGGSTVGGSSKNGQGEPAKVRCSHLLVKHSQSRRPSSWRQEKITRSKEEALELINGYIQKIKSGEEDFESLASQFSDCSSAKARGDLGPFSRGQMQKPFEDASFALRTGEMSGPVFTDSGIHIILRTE

[22] = test system: SK-HEP1; assay: Antitumor activity against human SK-HEP1 cells xenografted in c-Myc/Alb-Cre transgenic female BALB/c mouse model assessed as downregulation of c-myc level in liver at 2.5 mg/kg, po measured every 4 days by immunoblotting analysis; format: functional, organism-based; details: time 4.0 day
[23] = test system: SK-HEP1; assay: Antitumor activity against human SK-HEP1 cells xenografted in female BALB/c mouse assessed as increase in pin1 level in tumor at 2.5 mg/kg, po measured every 4 days; format: functional, organism-based; details: time 4.0 day
[24] = molecular target: T1, Peptidyl-prolyl cis-trans isomerase NIMA-interacting 1; assay: Inhibition of pin1 in human SK-HEP1 cells at 5 uM by mass spectrometry analysis; format: cell-based
[25] = test system: SK-HEP1; assay: Antitumor activity against human SK-HEP1 cells xenografted in c-Myc/Alb-Cre transgenic female BALB/c mouse model assessed as downregulation of beta-catenin level in liver at 2.5 mg/kg, po measured every 4 days by immunoblotting analysis; format: functional, organism-based; details: time 4.0 day
[26] = test system: Hep 3B2; assay: Antiproliferative activity human Hep3B cells assessed as inhibition of cell proliferation incubated for 120 hrs; format: functional, cell-based
[27] = molecular target: Peptidyl-prolyl cis-trans isomerase NIMA-interacting 4 (Homo sapiens) (UniProt Q9Y237); assay: Inhibition of full length pin4 (unknown origin) expressed in Escherichia coli
Sequence of Peptidyl-prolyl cis-trans isomerase NIMA-interacting 4 (Homo sapiens) (Q9Y237 whole entry): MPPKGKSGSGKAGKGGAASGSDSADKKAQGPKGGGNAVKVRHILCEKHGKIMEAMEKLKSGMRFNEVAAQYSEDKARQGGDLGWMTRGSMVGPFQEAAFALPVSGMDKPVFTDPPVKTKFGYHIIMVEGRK

[28] = Toxicity in c-Myc/Alb-Cre transgenic mouse assessed as liver damage at 2.5 mg/kg, po; format: organism-based; details: in vivo
[29] = molecular target: T1, Peptidyl-prolyl cis-trans isomerase NIMA-interacting 1; assay: Binding affinity to GST-tagged pin1 (unknown origin) assessed as dissociation constant by SPR analysis
[30] = Toxicity in c-Myc/Alb-Cre transgenic mouse assessed as effect on TBIL level at 2.5 mg/kg, po; format: organism-based; details: in vivo
[31] = test system: SK-HEP1; assay: Induction of cell cycle arrest in human SK-HEP1 cells assessed as accumulation of cells at S phase by PI staining based flow cytometry analysis; format: functional
[32] = test system: SK-HEP1; assay: Upregulation of miR-146a expression in human SK-HEP1 cells at 5 uM incubated for 36 hrs by RT-PCR analysis; format: functional, cell-based
[33] = Chemical stability of compound at pH 7 measured after 24 hrs by HPLC analysis; format: physicochemical; details: buffer, pH 7, 24 h
[34] = Chemical stability of compound by HPLC analysis; format: physicochemical
[35] = test system: SK-HEP1; assay: Antiproliferative activity human SK-HEP1 cells assessed as cell viability measured up to 120 hrs; format: functional, cell-based
[36] = molecular target: T1, Peptidyl-prolyl cis-trans isomerase NIMA-interacting 1; assay: Inhibition of full length pin1 (unknown origin) expressed in Escherichia coli
[37] = molecular target: T1, Peptidyl-prolyl cis-trans isomerase NIMA-interacting 1; assay: Inhibition of pin1 in human SK-HEP1 cells assessed as reduction in c-myc level at 5 uM incubated for 24 hrs by immunoblotting analysis; format: cell-based
[38] = Toxicity in c-Myc/Alb-Cre transgenic mouse assessed as kidney damage at 2.5 mg/kg, po; format: organism-based; details: in vivo
[39] = test system: SK-HEP1; assay: Antitumor activity against human SK-HEP1 cells xenografted in female BALB/c mouse assessed as downregulation of beta-catenin level at 2.5 mg/kg, po measured every 4 days by immunoblotting analysis; format: functional, organism-based; details: time 4.0 day
[40] = Toxicity in c-Myc/Alb-Cre transgenic mouse assessed as spleen damage at 2.5 mg/kg, po; format: organism-based; details: in vivo
[41] = organism: Homo sapiens; assay: Inhibition of FKBP12 (unknown origin) expressed in Escherichia coli
[42] = Toxicity in c-Myc/Alb-Cre transgenic mouse assessed as effect on AST level at 2.5 mg/kg, po; format: organism-based; details: in vivo
[43] = Toxicity in c-Myc/Alb-Cre transgenic mouse assessed as effect on ALT level at 2.5 mg/kg, po; format: organism-based; details: in vivo
[44] = test system: SK-HEP1; assay: Upregulation of miR-122 expression in human SK-HEP1 cells at 5 uM incubated for 36 hrs by RT-PCR analysis; format: functional, cell-based
[45] = test system: SK-HEP1; assay: Antitumor activity against human SK-HEP1 cells xenografted in female BALB/c mouse assessed as increase in pin1 level in kidney at 2.5 mg/kg, po measured every 4 days; format: functional, organism-based; details: time 4.0 day
[46] = test system: SK-HEP1; assay: Antitumor activity against human SK-HEP1 cells xenografted in female BALB/c mouse assessed as increase in pin1 level in brain at 2.5 mg/kg, po measured every 4 days; format: functional, organism-based; details: time 4.0 day
[47] = test system: SK-HEP1; assay: Antiproliferative activity human SK-HEP1 cells assessed as inhibition of cell proliferation incubated for 120 hrs; format: functional, cell-based; details: dose <= 2.0 µM
[48] = test system: SK-HEP1; assay: Antitumor activity against human SK-HEP1 cells xenografted in female BALB/c mouse assessed as reduction in tumor growth at 2.5 mg/kg, po measured every 4 days; format: functional, organism-based; details: time 4.0 day
[49] = test system: SK-HEP1; assay: Upregulation of miR-29b expression in human SK-HEP1 cells at 5 uM incubated for 36 hrs by RT-PCR analysis; format: functional, cell-based
[50] = molecular target: Voltage-gated inwardly rectifying potassium channel KCNH2 (Homo sapiens, UniProt Q12809)
Sequence of Voltage-gated inwardly rectifying potassium channel KCNH2 (Q12809 whole entry): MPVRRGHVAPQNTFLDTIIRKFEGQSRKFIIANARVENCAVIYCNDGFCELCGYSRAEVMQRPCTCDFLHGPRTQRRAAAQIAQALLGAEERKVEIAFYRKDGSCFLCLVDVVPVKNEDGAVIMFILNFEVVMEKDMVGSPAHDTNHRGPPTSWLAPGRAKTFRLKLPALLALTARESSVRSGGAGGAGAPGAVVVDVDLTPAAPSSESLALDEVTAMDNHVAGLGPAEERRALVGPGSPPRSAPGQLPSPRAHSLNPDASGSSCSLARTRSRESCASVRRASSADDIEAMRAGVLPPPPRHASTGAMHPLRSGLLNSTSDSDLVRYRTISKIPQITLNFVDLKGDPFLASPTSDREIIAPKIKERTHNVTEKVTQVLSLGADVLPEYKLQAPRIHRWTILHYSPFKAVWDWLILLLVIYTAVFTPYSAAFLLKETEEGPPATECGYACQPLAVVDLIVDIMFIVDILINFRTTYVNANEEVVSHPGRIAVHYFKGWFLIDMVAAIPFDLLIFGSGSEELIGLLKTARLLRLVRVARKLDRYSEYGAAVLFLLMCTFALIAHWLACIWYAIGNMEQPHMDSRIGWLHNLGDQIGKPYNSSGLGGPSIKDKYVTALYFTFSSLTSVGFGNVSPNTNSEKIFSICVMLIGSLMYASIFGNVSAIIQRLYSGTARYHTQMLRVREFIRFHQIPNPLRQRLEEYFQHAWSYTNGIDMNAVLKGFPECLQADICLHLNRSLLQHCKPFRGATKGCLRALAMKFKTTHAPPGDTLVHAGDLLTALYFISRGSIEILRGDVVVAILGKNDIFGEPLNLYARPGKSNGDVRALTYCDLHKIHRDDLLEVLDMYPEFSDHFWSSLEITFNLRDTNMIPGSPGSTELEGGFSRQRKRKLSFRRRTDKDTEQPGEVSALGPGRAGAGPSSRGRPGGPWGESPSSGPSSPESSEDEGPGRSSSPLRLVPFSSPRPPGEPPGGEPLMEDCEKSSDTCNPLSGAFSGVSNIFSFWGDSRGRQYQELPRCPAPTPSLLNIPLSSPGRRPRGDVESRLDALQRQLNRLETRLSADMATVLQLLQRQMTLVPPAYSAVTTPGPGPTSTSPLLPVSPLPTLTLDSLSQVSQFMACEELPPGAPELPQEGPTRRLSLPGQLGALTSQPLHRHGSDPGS

[51] = Toxicity in female BALB/c mouse implanted with human SK-HEP1 cells assessed as effect on body weight at 2.5 mg/kg, po measured every 4 days; format: organism-based; details: in vivo, 96 h, time 4 day
[52] = Toxicity in c-Myc/Alb-Cre transgenic mouse assessed as effect on ALB level at 2.5 mg/kg, po; format: organism-based; details: in vivo
[53] = test system: SK-HEP1; assay: Antiproliferative activity against human SK-HEP1 cells transfected with human pin1 assessed as cell viability at 5 uM incubated for 72 hrs; format: functional, cell-based
[54] = test system: SK-HEP1; assay: Antitumor activity against human SK-HEP1 cells xenografted in female BALB/c mouse assessed as increase in pin1 level in heart at 2.5 mg/kg, po measured every 4 days; format: functional, organism-based; details: time 4.0 day
[55] = Antiproliferative activity against human HCC cells assessed as cell viability incubated for 72 hrs by alamar blue dye based assay; format: toxicity; details: HCC cells

Drug uptake [3]: Active | inhibition [6]: inactive | Stability [8]: Stable | inhibition [10]: Active | Activity [13]: Active | Drug uptake [15]: Active | Drug uptake [19]: Active | Activity [21]: Active | inhibition [24]: Active | inhibition [27]: inactive | Kd [29]: 154 nM | Stability [33]: Stable | Stability [34]: Stable | IC50 [36]: 64.4 nM | inhibition [37]: Active | inhibition [41]: inactive
Compound: Nc1nc(OCc2ccc3c(c2)OCO3)c2nc[nH]c2n1
inhibition [1]: Active | Activity [2]: Active | Activity [4]: Active | Activity [5]: Active | Activity [7]: Active | Activity [9]: Non-toxic | inhibition [11]: Active | Activity [12]: Non-toxic | Activity [14]: Non-toxic | Activity [16]: Active | Activity [17]: Non-toxic | Activity [18]: Active | Activity [20]: Active | Activity [22]: Active | Activity [23]: Active | Activity [25]: Active | Activity [26]: Active | Activity [28]: Non-toxic | Activity [30]: Non-toxic | Activity [31]: Active | Activity [32]: Active | Activity [35]: Active | Activity [38]: Non-toxic | Activity [39]: Active | Activity [40]: Non-toxic | Activity [42]: Non-toxic | Activity [43]: Non-toxic | Activity [44]: Active | Activity [45]: Active | Activity [46]: Active | Activity [47]: Active | Activity [48]: Active | Activity [49]: Active | IC50 [50]: > 30000 nM | Activity [51]: Non-toxic | Activity [52]: Non-toxic | Activity [53]: Active | Activity [54]: Active | IC50 at 72 h [55]: 2600 nM
